Assay results published in patent US20230348459A1, “PYRROLIDINE COMPOUND AND USE THEREOF” (SIMCERE PHARMACEUTICAL CO., LTD., priority 2020, published 2023).

Experiments:
[1] = Plasma protein binding rate, equilibrium dialysis, rat plasma; format: in vitro ADME; settings: pH 7.4, SD rat plasma, 6 hours dialysis
Description: The protein binding rate of the compounds of the present invention in the plasma of five species (human, monkey, dog, rat and mouse) was determined by the following test method.
• 1. Human plasma (BioIVT), beagle dog plasma (BioIVT), SD rat plasma (BioIVT), CD-1 mouse plasma (BioIVT); • 2. 96-well equilibrium dialysis plate (HTDialysis LLC, Gales Ferry, CT, HTD96B), equilibrium dialysis membrane (MWCO 12-14 K, #1101); • 3. Positive control compound warfarin; • 4. ABI QTrap 5500 liquid chromatography-mass spectrometry.
1. Preparation of a buffer with a concentration of 100 mM sodium phosphate and 150 mM NaCl: an alkaline solution with a concentration of 14.2 g/L Na2HPO4 and 8.77 g/L NaCl was prepared with ultrapure water, and an acidic solution with a concentration of 12.0 g/L NaH2PO4 and 8.77 g/L NaCl was prepared with ultrapure water. The alkaline solution was titrated with the acidic solution to pH 7.4 to prepare a buffer with a concentration of 100 mM sodium phosphate and 150 mM NaCl.
2. Preparation of dialysis membrane: the dialysis membrane was soaked in ultrapure water for 60 minutes to separate the membrane into two pieces, then soaked in 20% ethanol for 20 minutes, and finally soaked in the buffer used for dialysis for 20 minutes.
3. Preparation of plasma: the frozen plasma was quickly thawed at room temperature, then the plasma was centrifuged at 3,220 g at 4° C. for 10 min to remove clots, and the supernatant was collected into a new centrifuge tube. The pH of the plasma was measured and recorded, and the plasma with pH of 7-8 was used.
3. Preparation of compound-containing plasma samples: 10 mM stock solution of compounds of the present invention or positive control compounds were diluted with DMSO to obtain 200 µM working solution. […]
The peak areas of the compounds on the buffer side and the plasma side were determined. […]
All the data was calculated by the Microsoft Excel software. The plasma protein binding rate values of the compounds of the present invention were calculated.

[2] = Pharmacokinetic evaluation in mice; format: in vivo; settings: CD-1 mice; for bioavailability: female, mouse, plasma, PO 10 mg/kg vs IV 1 mg/kg
Description: Six female CD-1 mice (20-30 g, 4-6 weeks) were randomized into 2 groups, 3 mice/group. Group 1 was given the test compound via tail vein injection at a dose of 1 mg/kg, and the vehicle was 5% DMSO in 10% HP-β-CD in water, and group 2 was given the test compound orally at a dose of 10 mg/kg, and the vehicle was 40% Tetraethylene Glycol (v/v), 7.5% Captisol (w/v) in water. Prior to the experiment, the animals were given food and water as usual. Before administration and 0.083 (only for the vein injection group), 0.25, 0.5, 1, 2, 4, 6, 8 and 24 h after administration, blood was sampled from the veins of the mice in each group. The whole blood sample collected was placed in a K2EDTA anticoagulation tube and centrifuged for 5 min (12,000 rpm, 4° C.) and then the plasma was taken for later detection.
10 µL of the mouse plasma sample was taken and 150 µL of acetonitrile solvent (wherein internal standard compound was contained) was added to precipitate proteins. After the mixture was vortexed for 5 min, centrifugation (14,000 rpm) was performed for 5 min. The supernatant was diluted 2-fold with water containing 0.1% (v/v) FA and injected into the LC-MS/MS system (AB Sciex Triple Quad 6500+) for the quantitative detection. A calibration standard curve was prepared in CD-1 mouse plasma along with quality control samples to determine the plasma concentration. For the 10x diluted samples, 2 µL of the sample was taken and 18 µL of blank plasma was added. After the mixture was vortexed for 0.5 min, 300 µL of acetonitrile solvent (wherein an internal standard compound was contained) was added to precipitate proteins. The other processing steps were identical to those for the samples not diluted.

Structure (SMILES) | fraction unbound at 6 h, 1 µM [1] | Drug exposure ([2]; IV 1 mg/kg) [ng·h/mL] | Maximum drug concentration ([2]; IV 1 mg/kg) [ng/mL] | Time of half drug elimination ([2]; IV 1 mg/kg) [h] | Drug exposure ([2]; PO 10 mg/kg) [ng·h/mL] | Maximum drug concentration ([2]; PO 10 mg/kg) [ng/mL] | Time of half drug elimination ([2]; PO 10 mg/kg) [h] | Time to peak drug concentration ([2]; PO 10 mg/kg) [h] | bioavailability [2] [%]
C[C@@H]1Cc2c([nH]c3ccccc23)C(c2c(F)cc(N[C@H]3CCN(CCCF)C3)cc2F)N1CC(F)(F)F (stereo in doubt) [Example 4, (S)-N-(3,5-difluoro-4-((1S,3R)-3-methyl-2-(2,2,2-trifluoroethyl)-2,3,4,9-tetrahydro-1H-pyridino[3,4-b]indol-1-yl)phenyl)-1-(3-fluoropropyl)pyrrolidin-3-amine] | 0.002 | 639 | 78 | 21 | 3853 | 222 | 19 | 5 | 60
C[C@@H]1Cc2c([nH]c3ccccc23)C(c2c(F)cc(N[C@H]3CCN(CCCF)C3)cc2F)N1CC(F)(F)CO (stereo in doubt) [Example 7, 3-((1S,3R)-1-(2,6-difluoro-4-(((S)-1-(3-fluoropropyl)pyrrolidin-3-yl)amino)phenyl)-3-methyl-3,4-dihydro-1H-pyridino [3,4-b]indole-2(9H)-yl)-2,2-difluoropropane-1-ol] | 0.015 | 879 | 259 | 5 | 5447 | 555 | 4 | 1 | 62
C[C@@H]1Cc2c([nH]c3ccccc23)[C@@H](c2ccc(N[C@H]3CCN(CCCF)C3)cn2)N1CC(F)(F)F [Example 3, N-((S)-1-(3-fluoropropyl)pyrrolidin-3-yl)-6-((1S,3R)-3-methyl-2-(2,2,2-trifluoroethyl)-2,3,4,9-tetrahydro-1H-pyridino[3,4-b]indol-1-yl)pyridine-3-amine] | 0.029 | 414 | 98 | 13 | 2804 | 219 | 9 | 3 | 68
